Values after ≈ are worked out from the molar mass of the structure shown. Active and inactive are the calls of the source. The calls are words filed in the database; no cut-off is given here.
Assays:
Escherichia coli = test: Antibacterial activity against Escherichia coli CICC 10389 assessed as bacterial growth inhibition incubated for 18 to 24 hrs by microtiter dilution method; type: functional; conditions: time 18-24 hrs
Enterococcus faecalis = test: Antibacterial activity against Enterococcus faecalis assessed as bacterial growth inhibition incubated for 18 to 24 hrs by microtiter dilution method; type: functional; conditions: time 18-24 hrs
[1] = test system: Staphylococcus epidermidis; test: Antibacterial activity against methicillin-resistant Staphylococcus epidermidis ATCC 51625 assessed as bacterial growth inhibition incubated for 18 to 24 hrs by microtiter dilution method; type: functional; conditions: time 18-24 hrs
Staphylococcus aureus [2] = test: Antibacterial activity against methicillin-resistant Staphylococcus aureus BNCC 337371 assessed as bacterial growth inhibition incubated for 18 to 24 hrs by microtiter dilution method; type: functional; conditions: time 18-24 hrs
Bacillus subtilis = test: Antibacterial activity against Bacillus subtilis assessed as bacterial growth inhibition incubated for 18 to 24 hrs by microtiter dilution method; type: functional; conditions: time 18-24 hrs
Staphylococcus aureus [3] = test: Antibacterial activity against Staphylococcus aureus ATCC 25923 assessed as bacterial growth inhibition incubated for 18 to 24 hrs by microtiter dilution method; type: functional; conditions: time 18-24 hrs
Staphylococcus aureus [4] = test: Antibacterial activity against methicillin-resistant Staphylococcus aureus BNCC 337371 infected in Kunming mouse lung assessed as reduction on alveolar diaphragm thickening at 40 mg/kg,ip measured after 7 days by hematoxylin and eosin staining based light microscopic analysis; type: functional, organism-based; conditions: time 7.0 day
Staphylococcus aureus [5] = test: Antibacterial activity against methicillin-resistant Staphylococcus aureus BNCC 337371 infected in Kunming mouse lung assessed as reduction on bacterial growth at 15 mg/kg,ip dosed measured after 7 days by 10-fold dilution method; type: functional; conditions: time 7 day
Staphylococcus aureus [6] = test: Antibacterial activity against methicillin-resistant Staphylococcus aureus BNCC 337371 infected in Kunming mouse lung assessed as reduction on neutrophil infiltration at 15 mg/kg,ip measured after 7 days by hematoxylin and eosin staining based light microscopic analysis; type: functional, organism-based; conditions: time 7.0 day
Staphylococcus aureus [7] = test: Antibacterial activity against methicillin-resistant Staphylococcus aureus BNCC 337371 infected in Kunming mouse lung assessed as reduction on lymphocyte infiltration at 40 mg/kg,ip measured after 7 days by hematoxylin and eosin staining based light microscopic analysis; type: functional, organism-based; conditions: time 7.0 day
Staphylococcus aureus [8] = test: Antibacterial activity against methicillin-resistant Staphylococcus aureus BNCC 337371 infected in Kunming mouse lung assessed as reduction on lymphocyte infiltration at 15 mg/kg,ip measured after 7 days by hematoxylin and eosin staining based light microscopic analysis; type: functional, organism-based; conditions: time 7.0 day
Staphylococcus aureus [9] = test: Antibacterial activity against methicillin-resistant Staphylococcus aureus BNCC 337371 infected in Kunming mouse assessed as reduction on bacterial growth by measuring survival rate at ip dosed measured after 7 days by Bliss method; type: functional; conditions: BNCC 337371, 168 h, time 7 day
Staphylococcus aureus [10] = test: Antibacterial activity against methicillin-resistant Staphylococcus aureus BNCC 337371 infected in Kunming mouse lung assessed as reduction on pulmonary fibrosis at 15 mg/kg,ip measured after 7 days by hematoxylin and eosin staining based light microscopic analysis; type: functional, organism-based; conditions: time 7.0 day
Staphylococcus aureus [11] = test: Antibacterial activity against methicillin-resistant Staphylococcus aureus BNCC 337371 infected in Kunming mouse lung assessed as reduction on neutrophil infiltration at 40 mg/kg,ip measured after 7 days by hematoxylin and eosin staining based light microscopic analysis; type: functional, organism-based; conditions: time 7.0 day
Staphylococcus aureus [12] = test: Antibacterial activity against methicillin-resistant Staphylococcus aureus BNCC 337371 infected in Kunming mouse lung assessed as reduction on alveolar diaphragm thickening at 15 mg/kg,ip measured after 7 days by hematoxylin and eosin staining based light microscopic analysis; type: functional, organism-based; conditions: time 7.0 day
Staphylococcus aureus [13] = test: Antibacterial activity against methicillin-resistant Staphylococcus aureus BNCC 337371 infected in Kunming mouse lung assessed as reduction on bacterial growth at 40 mg/kg,ip dosed measured after 7 days by 10-fold dilution method; type: functional; conditions: time 7 day

Compound	MIC (Escherichia coli)	MIC (Enterococcus faecalis)	MIC [1]	MIC (Staphylococcus aureus [2])	MIC (Bacillus subtilis)	MIC (Staphylococcus aureus [3])	Activity (Staphylococcus aureus [4])	Activity (Staphylococcus aureus [5])	Activity (Staphylococcus aureus [6])	Activity (Staphylococcus aureus [7])	Activity (Staphylococcus aureus [8])	ED50 (Staphylococcus aureus [9])	Activity (Staphylococcus aureus [10])	Activity (Staphylococcus aureus [11])	Activity (Staphylococcus aureus [12])	Activity (Staphylococcus aureus [13])
C=C[C@]1(C)C[C@@H](OC(=O)CSc2nc(C)c(C(=O)OC)c(CC(C)C)n2)[C@]2(C)[C@H](C)CC[C@]3(CCC(=O)[C@H]32)[C@@H](C)[C@@H]1O	> 16 µg/mL	> 16 µg/mL	0.5 µg/mL (≈ 0.832 µM)	0.25 µg/mL (≈ 0.416 µM)	> 16 µg/mL	0.25 µg/mL (≈ 0.416 µM)										
C=CCOC(=O)c1c(C)nc(SCC(=O)O[C@@H]2C[C@@](C)(C=C)[C@@H](O)[C@H](C)[C@]34CCC(=O)[C@H]3[C@@]2(C)[C@H](C)CC4)nc1C	> 16 µg/mL	> 16 µg/mL	0.25 µg/mL (≈ 0.428 µM)	1 µg/mL (≈ 1.71 µM)	4 µg/mL (≈ 6.84 µM)	0.125 µg/mL (≈ 0.214 µM)										
C=C[C@]1(C)C[C@@H](OC(=O)CSC2=NC(CCC)=C(C(=O)OC)C(C)N2)[C@]2(C)[C@H](C)CC[C@]3(CCC(=O)[C@H]32)[C@@H](C)[C@@H]1O (stereo partly specified)	> 16 µg/mL	> 16 µg/mL	4 µg/mL (≈ 6.79 µM)	8 µg/mL (≈ 13.6 µM)	16 µg/mL (≈ 27.2 µM)	4 µg/mL (≈ 6.79 µM)										
C=C[C@]1(C)C[C@@H](OC(=O)CSc2nc(C)c(C(=O)OCCC)c(C)n2)[C@]2(C)[C@H](C)CC[C@]3(CCC(=O)[C@H]32)[C@@H](C)[C@@H]1O	> 16 µg/mL	> 16 µg/mL	0.125 µg/mL (≈ 0.213 µM)	0.125 µg/mL (≈ 0.213 µM)	4 µg/mL (≈ 6.82 µM)	0.25 µg/mL (≈ 0.426 µM)										
C=C[C@]1(C)C[C@@H](OC(=O)CSC2=NC(CC(C)C)=C(C(=O)OC)C(C)N2)[C@]2(C)[C@H](C)CC[C@]3(CCC(=O)[C@H]32)[C@@H](C)[C@@H]1O (stereo partly specified)	> 16 µg/mL	> 16 µg/mL	0.5 µg/mL (≈ 0.829 µM)	0.5 µg/mL (≈ 0.829 µM)	> 16 µg/mL	1 µg/mL (≈ 1.66 µM)										
C=C[C@]1(C)C[C@@H](OC(=O)CSc2nc(C)c(C(=O)OC)c(C(CC)CC)n2)[C@]2(C)[C@H](C)CC[C@]3(CCC(=O)[C@H]32)[C@@H](C)[C@@H]1O	> 16 µg/mL	> 16 µg/mL	0.5 µg/mL (≈ 0.813 µM)	0.25 µg/mL (≈ 0.407 µM)	> 16 µg/mL	0.25 µg/mL (≈ 0.407 µM)										
C=C[C@]1(C)C[C@@H](OC(=O)CSC2=NC(C)=C(C(=O)OCC)C(C)N2)[C@]2(C)[C@H](C)CC[C@]3(CCC(=O)[C@H]32)[C@@H](C)[C@@H]1O (stereo partly specified)	> 16 µg/mL	> 16 µg/mL	0.0625 µg/mL (≈ 0.109 µM)	0.125 µg/mL (≈ 0.217 µM)	> 16 µg/mL	0.0625 µg/mL (≈ 0.109 µM)										
C=C[C@]1(C)C[C@@H](OC(=O)CSC2=NC(C)=C(C(=O)OCCC)C(C)N2)[C@]2(C)[C@H](C)CC[C@]3(CCC(=O)[C@H]32)[C@@H](C)[C@@H]1O (stereo partly specified)	> 16 µg/mL	> 16 µg/mL	0.5 µg/mL (≈ 0.849 µM)	0.5 µg/mL (≈ 0.849 µM)	> 16 µg/mL	0.25 µg/mL (≈ 0.425 µM)										
C=C[C@]1(C)C[C@@H](OC(=O)CSCCN(CC)CC)[C@]2(C)[C@H](C)CC[C@]3(CCC(=O)[C@H]32)[C@@H](C)[C@@H]1O.O=C(O)/C=C/C(=O)O [TIAMULIN FUMARATE]	> 16 µg/mL	> 16 µg/mL	0.5 µg/mL	0.5 µg/mL	> 16 µg/mL	0.5 µg/mL	Active	1.68 log10CFU/ml	Active	Active	Active	22.9 mg/kg	Active	Active	Active	2.56 log10CFU/ml
C=C[C@]1(C)C[C@@H](OC(=O)CSc2nc(C)c(C(=O)OC)c(CCCC)n2)[C@]2(C)[C@H](C)CC[C@]3(CCC(=O)[C@H]32)[C@@H](C)[C@@H]1O	> 16 µg/mL	> 16 µg/mL	0.5 µg/mL (≈ 0.832 µM)	4 µg/mL (≈ 6.66 µM)	> 16 µg/mL	2 µg/mL (≈ 3.33 µM)										
C=C[C@]1(C)C[C@@H](OC(=O)CSc2nc(C)c(C(=O)OC)c(CC)n2)[C@]2(C)[C@H](C)CC[C@]3(CCC(=O)[C@H]32)[C@@H](C)[C@@H]1O	> 16 µg/mL	> 16 µg/mL	0.0625 µg/mL (≈ 0.109 µM)	0.0625 µg/mL (≈ 0.109 µM)	4 µg/mL (≈ 6.98 µM)	0.0313 µg/mL (≈ 0.0546 µM)										

— ChEMBL document CHEMBL5120841, “Discovery of novel pleuromutilin derivatives as potent antibacterial agents” (2022)
